ChEMBL document CHEMBL1134723, “Synthesis and evaluation of the sunflower derived trypsin inhibitor as a potent inhibitor of the type II transmembrane serine protease, matriptase” (Bioorg Med Chem Lett, 2001)

Target: Prothrombin (Bos taurus, UniProt P00735)
Test: Compound was tested for inhibition of bovine Thrombin

Question: With `CC[C@H](C)[C@@H]1NC(=O)[C@@H]2CCCN2C(=O)[C@@H]2CCCN2C(=O)[C@H]([C@@H](C)CC)NC(=O)[C@H](CO)NC(=O)[C@H](CCCCN)NC(=O)[C@H]([C@@H](C)O)NC(=O)[C@@H]2CSSC[C@H](NC1=O)C(=O)N[C@@H](Cc1ccccc1)C(=O)N1CCC[C@@H]1C(=O)N[C@@H](CC(=O)O)C(=O)NCC(=O)N[C@@H](CCCN=C(N)N)C(=O)N2` as the compound, how does the Ki read?
Answer: 5.05 µM
